Measured values: publication PMC8074679, “Synthesis and pharmacological characterization of glucopyranosyl-conjugated benzyl derivatives as novel selective cytotoxic agents against colon cancer” (Royal Society Open Science, 2021)
Where two headings read alike, the source gives them in different places.

Legend:
293T cells = test: MTS cytotoxicity assay, 293T (model of normal cells); conditions: read-out: IC50 (μM) 293T
Description: (§3) HCT-116 cells were cultured in McCoy's 5a Modified Medium (Gibco, USA). […] Both media contain 10% fetal bovine serum (Gibco, USA) and 1% penicillin–streptomycin (Gibco, USA). Cells were maintained in incubator (Thermo Fisher, USA) supplied with 5% CO2 at 37°C. Only cells in logarithmic phase were used in all following experiments.
(§4) In brief, cells were seeded into 96-well plate (Corning, USA) with a density of 3000 cells/well for 24 h, and then treated with tested compounds at various concentrations for 72 h.

HCT-116 cells [1] = test: MTS cytotoxicity assay, HCT-116; conditions: for IC50: read-out: IC50 (μM) HCT-116; for selectivity: ratio of cytotoxicity against 293T cells over cytotoxicity against HCT-116 cells
Description: as §3, §4

HCT-116 cells [2] = test: Annexin V/PI double staining, flow cytometry; type: cell-based, human; conditions: 2.5 and 5 µM
Description: (§1) Next, the type of cell death induced by compound 8d was investigated. […] Annexin V/PI staining assay were carried out to analyse the apoptotic rate of HCT-116 cells.
Cells were seeded in 6-well plates with a density of 5 × 10^5 cells per well and then treated with various concentrations of compound 8d (0 µM, 2.5 µM and 5 µM) for 48 h. Cells were collected and stained with annexin V and PI for 20 min, and then detected by flow cytometer (BD, USA) to analyse the apoptotic cell distribution. Living cells (annexin V^−/PI^−), early apoptotic cells (annexin V^+/PI^−), late apoptotic cells (annexin V^+/PI^+) and necrotic cells (annexin V^−/PI^+) were calculated in the Cell Quest software (BD, USA).

HCT-116 cells [3] = test: Annexin V staining in living cells; type: cell-based, human; conditions: 5 µM, 72 h
Description: as §1
Cells that seed on coverslips were treated with compound 8d (5 µM) for 72 h. Annexin V-FITC was used to target exposed phosphatidylserine which is a marker of early apoptosis. The nucleus of living cells was labelled by Hoechst 33258. The cells were observed by fluorescence microscope (Olympus, Japan).

HCT-116 cells [4] = test: TUNEL assay; type: cell-based, human; conditions: 5 µM, 72 h
Description: as §1
TdT-UTP nick end-labelling (TUNEL) assay was used to detect the apoptotic cells by in situ cell death detection kit (Roche, Germany) according to the manufacturer's instruction. Briefly, HCT-116 cells were seeded on coverslips and cultured overnight, following treatment with compound 8d (5 µM) for 72 h, then fixed with 4% paraformaldehyde for 30 min and permeabilized with 0.1% Triton X-100 for 2 min on ice. TUNEL reaction mixture was applied to the cells in an atmosphere for 1 h at 37°C in the dark, following with converter-POD and DAB substrate treatment. Samples were detected by a microscope (Olympus, Japan).

HCT-116 cells [5] = test: Hoechst 33258 staining; type: cell-based, human; conditions: 5 µM, 48 or 72 h
Description: as §1
HCT-116 cells were seeded in coverslips for 24 h, and then compound 8d was incubated at a concentration of 5 µM for 48 or 72 h. Cells were incubated with Hoechst 33258 (Sigma, USA) in the dark at room temperature for 30 min after being fixed with 4% paraformaldehyde. The nuclear morphology of apoptosis was observed by fluorescence microscope (Olympus, Japan).

HCT-116 cells [6] = test: Colony formation assay; type: cell-based, human; conditions: pre-treatment 24 h with various concentrations, 9 days culture after withdrawal
Description: (§2) Thus, it was further studied to understand its underlying antiproliferation mechanism. The confluence areas of HCT-116 cells treated with various concentrations of compound 8d were detected by a live cell analysis imaging system.
HCT-116 cells were seeded in 6-well plates at a density of 300 cells per well and cultured overnight, and then treated with various concentrations of compound 8d for 24 h. Cells were continuously cultured for 9 days after drug withdrawal. Finally, 1% crystal violet was used to stain cells after fixing with 4% paraformaldehyde, and the visible colonies were recorded by the microscope and counted manually using imageJ.

HCT-116 cells [7] = test: Live cell imaging of confluence area (Incucyte); type: cell-based, human
Description: as §2
Cells were seeded into 24-well plate (1 × 10^4 cells well^−1) for 24 h. Different concentrations of compound 8d were added to treat cells. Time-lapse photography of cells was recorded by Incucyte system. The confluences relative to total well area were calculated using a module of the cell confluence area analysing.

[8] = MTS assay, 72 h treatment, mean ± s.d.

Compound	IC50 (293T cells; Homo sapiens, HEK-293T, 72 h)	IC50 (HCT-116 cells [1]; Homo sapiens, HCT-116, 72 h)	selectivity (HCT-116 cells [1])	other results
CC(=O)OC[C@H]1OC(OC(C)=O)[C@H](n2cc(COCc3ccc(C)cc3)nn2)[C@@H](OC(C)=O)[C@@H]1OC(C)=O (stereo partly drawn) [Compound 8c, 1-(1,3,4,6-Tetra-O-acetyl-D-glucopyranosyl)-4-(4-methylbenzene)hydryloxymethyl-[1,2,3]-triazole]	19.57 ± 0.13 µM	6.4 ± 0.2 µM	3.06	
CC(=O)OC[C@H]1OC(OC(C)=O)[C@H](N=[N+]=[N-])[C@@H](OC(C)=O)[C@@H]1OC(C)=O (stereo partly drawn) [Compound 4, 1,3,4,6-Tetra-O-acetyl-2-azido-2-deoxy-D-glucose, reference compound]	46.9 ± 2.93 µM	97.5 ± 1.58 µM	0.48	
CC(=O)OC[C@H]1OC(OC(C)=O)[C@H](n2cc(COCc3ccc(Br)cc3)nn2)[C@@H](OC(C)=O)[C@@H]1OC(C)=O (stereo partly drawn) [8 g, 1-(1,3,4,6-Tetra-O-acetyl-D-glucopyranosyl)-4-(4-bromobenzene)hydryloxymethyl-[1,2,3]-triazole]	11.7 ± 0.16 µM	4.55 ± 0.23 µM	2.56	
CC(=O)OC[C@H]1OC(OC(C)=O)[C@H](n2cc(CO)nn2)[C@@H](OC(C)=O)[C@@H]1OC(C)=O (stereo partly drawn) [Compound 8a, 1-(1,3,4,6-Tetra-O-acetyl-D-glucopyranosyl)-4-hydroxymethyl-[1,2,3]-triazole]	> 50 µM	> 50 µM		cytotoxicity / antiproliferation activity towards HCT-116 (in words) (HCT-116 cells [1]; MTS assay): fairly weak
CC(=O)OC[C@H]1OC(OC(C)=O)[C@H](N)[C@@H](OC(C)=O)[C@@H]1OC(C)=O (stereo partly drawn) [AOAG, reference compound]				IC50 (293T cells; [8]): > 200 µM; IC50 (HCT-116 cells [1]; [8]): > 200 µM
CC(=O)OC[C@H]1OC(OC(C)=O)[C@H](n2cc(COCc3ccc(Cl)cc3)nn2)[C@@H](OC(C)=O)[C@@H]1OC(C)=O (stereo partly drawn) [Compound 8f, 1-(1,3,4,6-Tetra-O-acetyl-D-glucopyranosyl)-4-(4-chlorobenzene)hydryloxymethyl-[1,2,3]-triazole]	22.41 ± 0.05 µM	7.04 ± 0.06 µM	3.18	
O=c1[nH]cc(F)c(=O)[nH]1 [Compound 5-FU, 5-Fluorouracil, reference compound]	9.13 ± 1.63 µM	3.62 ± 1.22 µM	2.52	
CC(=O)OC[C@H]1OC(OC(C)=O)[C@H](n2cc(COCc3ccc([N+](=O)[O-])cc3)nn2)[C@@H](OC(C)=O)[C@@H]1OC(C)=O (stereo partly drawn) [Compound 8i, 1-(1,3,4,6-Tetra-O-acetyl-D-glucopyranosyl)-4-(4-nitrobenzene)hydryloxymethyl-[1,2,3]-triazole]	8 ± 0.77 µM	17.3 ± 3.86 µM	0.46	
COc1ccc(COCc2cn([C@H]3C(OC(C)=O)O[C@H](COC(C)=O)[C@@H](OC(C)=O)[C@@H]3OC(C)=O)nn2)cc1 (stereo partly drawn) [Compound 8d, 1-(1,3,4,6-Tetra-O-acetyl-D-glucopyranosyl)-4-(4-methoxybenzene)hydryloxymethyl-[1,2,3]-triazole]	31.35 ± 0.1 µM	2.88 ± 0.32 µM	10.89	induction of apoptosis, Annexin V/PI assay (in words) (HCT-116 cells [2]): dose-dependently induced early apoptosis and late apoptosis; Annexin V-FITC staining on cellular membranes of living cells (HCT-116 cells [3]): Annexin-V-positive staining emerged on cellular membranes; DNA fragmentation, TUNEL assay (HCT-116 cells [4]): DNA fragmentation emerged; apoptotic DNA fragmentation, Hoechst 33258 staining (HCT-116 cells [5]): Apoptotic DNA fragmentation; colony formation of HCT-116 (HCT-116 cells [6]): inhibited the colony formation of HCT-116 by a dose-dependent manner; proliferation of HCT-116 cells (confluence area) (HCT-116 cells [7]; 10 µM, for at least 72 h): completely inhibited; proliferation of HCT-116 cells (confluence area), dose dependence (HCT-116 cells [7]; various concentrations): dose-dependently inhibited the proliferation; cytotoxicity / antiproliferation activity towards HCT-116 (in words) (HCT-116 cells [1]; MTS assay): comparable to 5-FU
OCc1ccccc1 [Compound 6b, reference compound]	> 200 µM	> 200 µM		
CC(=O)OC[C@H]1OC(OC(C)=O)[C@H](n2cc(COCc3ccc(F)cc3)nn2)[C@@H](OC(C)=O)[C@@H]1OC(C)=O (stereo partly drawn) [Compound 8e, 1-(1,3,4,6-Tetra-O-acetyl-D-glucopyranosyl)-4-(4-fluorobenzene)hydryloxymethyl-[1,2,3]-triazole]	8.1 ± 0.08 µM	4.17 ± 0.06 µM	1.94	
CC(=O)OC[C@H]1OC(OC(C)=O)[C@H](n2cc(COCc3ccc(C(F)(F)F)cc3)nn2)[C@@H](OC(C)=O)[C@@H]1OC(C)=O (stereo partly drawn) [8 h, 1-(1,3,4,6-Tetra-O-acetyl-D-glucopyranosyl)-4-(4-trifluoromethylbenzene)hydryloxymethyl-[1,2,3]-triazole]	6.09 ± 0.42 µM	14.3 ± 2.18 µM	0.42	
